Legend:
[1] = biological target: T1, Casp6-K284A (Homo sapiens, UniProt P55212, K284A); test: C13 dose-response, fluorescence-based activity assay on Casp6-K284A; type: biochemical; settings: Casp6-K284A; read-out: IC50 of C13 for Casp6-K284A (Fig. 4f)
T1 construct: it only partially self-cleaved at the TEVD193 site generating ΔCasp6, LS-L and SS fragments; His (C); made in house; host or cells: E. coli BL21(DE3)pLysS
T1 sequence (P55212 24-193): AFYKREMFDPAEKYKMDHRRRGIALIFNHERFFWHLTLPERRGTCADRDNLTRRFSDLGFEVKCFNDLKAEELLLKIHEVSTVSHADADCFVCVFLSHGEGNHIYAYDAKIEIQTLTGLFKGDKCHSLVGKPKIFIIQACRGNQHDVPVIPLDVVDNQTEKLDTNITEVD
T1 sequence (P55212 194-293 K284A): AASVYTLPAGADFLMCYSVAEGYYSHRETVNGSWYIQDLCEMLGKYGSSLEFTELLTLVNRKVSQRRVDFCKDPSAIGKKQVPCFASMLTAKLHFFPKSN
Description: (§1) Figure 4 Compounds S10G and C13 inhibit Casp6 through a noncompetitive mode of inhibition. (a) Michaelis-Menten kinetic plots of Casp6 enzymatic activity in presence of 1% DMSO or increasing doses S10G (top) and C13 (bottom). Data points represent mean ± SD of three independent experiments. (b) Lineweaver-Burk plots of Casp6 inhibition with S10G (top) and C13 (bottom). Red circle indicates the point where lines converge. (c) The relationship between the slopes of lines in Lineweaver-Burk plot analyses in panel (b) and inhibitor concentration. (d) Plots of IC50 values for S10G (top) and C13 (bottom) with varying concentrations of Ac-VEID-AFC substrate. Data points represent mean ± SD from three independent experiments for each substrate concentration. (e) Binding model of C13 into CASP6 putative allosteric site, derived from molecular docking. Left: C13 (green sticks) occupies the putative allosteric site (white surface and lines; Ala-mutated residues L200 and K284 shown as purple sticks). […] Data points on the graph represent the mean ± SD, and calculated Ki values represent mean ± standard error (SE) from three independent experiments. […]

[2] = tested on: Casp6-K284A; test: as above; type: biochemical, human
Description: as §1

IC50 [1]: 46.7 ± 18.5 µM
fold higher IC50 for Casp6-K284A than Casp6-WT [2]: ~ 2.7 fold
SMILES: COC(=O)c1cc(CNC(=O)C2Cc3ccccc3O2)cc(NC(=O)c2ccco2)c1 (centres unmarked) [Compound C13]

Reference: paper PMC6445123 (Scientific Reports, 2019)
